Measured values as given in ChEMBL document CHEMBL1130996, “A depsipeptide fungal metabolite inhibitor of cholesteryl ester transfer protein” (Bioorg Med Chem Lett, 1998).
Values belong to the molecule of their own block, whether it stands above or below them.

What was measured:
[1] = molecular target: T1, Cholesteryl ester transfer protein (Homo sapiens, UniProt P11597); experiment: Compound was evaluated for inhibitory activity against cholesteryl ester transfer protein; Inactive
T1 sequence (P11597 whole entry): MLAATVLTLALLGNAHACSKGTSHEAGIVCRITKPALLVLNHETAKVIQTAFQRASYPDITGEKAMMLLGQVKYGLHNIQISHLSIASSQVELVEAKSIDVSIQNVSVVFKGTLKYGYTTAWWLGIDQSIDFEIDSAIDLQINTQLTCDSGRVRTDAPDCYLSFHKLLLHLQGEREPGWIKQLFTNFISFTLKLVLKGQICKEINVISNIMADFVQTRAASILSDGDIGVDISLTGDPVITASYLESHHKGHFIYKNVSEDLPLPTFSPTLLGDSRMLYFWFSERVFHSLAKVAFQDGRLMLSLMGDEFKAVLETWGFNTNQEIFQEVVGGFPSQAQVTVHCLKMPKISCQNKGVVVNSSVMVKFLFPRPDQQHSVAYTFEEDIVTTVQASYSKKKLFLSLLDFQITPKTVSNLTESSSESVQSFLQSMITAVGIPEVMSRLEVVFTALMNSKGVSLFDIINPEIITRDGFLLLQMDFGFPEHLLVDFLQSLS

[2] = molecular target: T1, Cholesteryl ester transfer protein; experiment: Compound was evaluated for inhibitory activity against cholesteryl ester transfer protein-SPA assay; Inactive
[3] = molecular target: T1, Cholesteryl ester transfer protein; experiment: Compound was evaluated for inhibitory activity against cholesteryl ester transfer protein, reported from fungus; parameters: species or system Fungi
[4] = molecular target: T1, Cholesteryl ester transfer protein; experiment: Compound was evaluated for inhibitory activity against cholesteryl ester transfer protein
[5] = molecular target: T1, Cholesteryl ester transfer protein; experiment: Compound was evaluated for inhibitory activity against cholesteryl ester transfer protein, reported from sponge

IC50 [1]: Not Active
Compound: CCCCC(C)/C=C/C(=O)N[C@@H](Cc1ccccc1)C(=O)N[C@@H](C)C(=O)N[C@@H](CC(C)C)C(=O)O (stereo not given in full)

IC50 [2]: Not Active
Compound: CCCCC(C)C(O)CC(=O)N[C@@H](Cc1ccccc1)C(=O)N[C@@H](C)C(=O)N[C@@H](CC(C)C)C(=O)O (stereo not given in full)

IC50 [3]: 40 µM | IC50 [4]: 50 µM | IC50 [5]: 0.3 µM
Compound: CCCCC(C)C1CC(=O)N[C@@H](Cc2ccccc2)C(=O)N[C@@H](C)C(=O)N[C@@H](CC(C)C)C(=O)O1 (stereo not given in full)
